Test results published in ChEMBL document CHEMBL1817560, “Selectivity of kinase inhibitor fragments” (J Med Chem, 2011).

Tests used:
[1] = molecular target: Rho-associated protein kinase 1 (Homo sapiens) (UniProt Q13464); test: Inhibition of ROCK1 expressed in Escherichia coli or baculovirus-infected insect cells at 400 uM by IMAP assay
[2] = molecular target: Receptor tyrosine-protein kinase erbB-4 (Homo sapiens) (UniProt Q15303); test: Inhibition of ErbB4 expressed in Escherichia coli or baculovirus-infected insect cells at 400 to 667 uM by TR-FRET assay
[3] = molecular target: RAC-alpha serine/threonine-protein kinase (Homo sapiens, UniProt P31749); test: Inhibition of AKT1 expressed in Escherichia coli or baculovirus-infected insect cells using gamma-[33P]ATP at 400 uM by scintillation proximity assay
[4] = molecular target: Focal adhesion kinase 1 (Homo sapiens) (UniProt Q05397); test: Inhibition of FAK expressed in Escherichia coli or baculovirus-infected insect cells at 400 uM by TR-FRET assay
[5] = molecular target: Serine/threonine-protein kinase pim-1 (Homo sapiens) (UniProt P11309); test: Inhibition of PIM1 expressed in Escherichia coli or baculovirus-infected insect cells at 400 uM by IMAP assay
[6] = molecular target: Epidermal growth factor receptor (Homo sapiens) (UniProt P00533); test: Inhibition of EGFR expressed in Escherichia coli or baculovirus-infected insect cells at 400 uM by TR-FRET assay
[7] = molecular target: T1, Tyrosine-protein kinase JAK3 (Homo sapiens) (UniProt P52333); test: Inhibition of JAK3 expressed in Escherichia coli or baculovirus-infected insect cells at 667 uM by TR-FRET assay
T1 sequence (whole entry): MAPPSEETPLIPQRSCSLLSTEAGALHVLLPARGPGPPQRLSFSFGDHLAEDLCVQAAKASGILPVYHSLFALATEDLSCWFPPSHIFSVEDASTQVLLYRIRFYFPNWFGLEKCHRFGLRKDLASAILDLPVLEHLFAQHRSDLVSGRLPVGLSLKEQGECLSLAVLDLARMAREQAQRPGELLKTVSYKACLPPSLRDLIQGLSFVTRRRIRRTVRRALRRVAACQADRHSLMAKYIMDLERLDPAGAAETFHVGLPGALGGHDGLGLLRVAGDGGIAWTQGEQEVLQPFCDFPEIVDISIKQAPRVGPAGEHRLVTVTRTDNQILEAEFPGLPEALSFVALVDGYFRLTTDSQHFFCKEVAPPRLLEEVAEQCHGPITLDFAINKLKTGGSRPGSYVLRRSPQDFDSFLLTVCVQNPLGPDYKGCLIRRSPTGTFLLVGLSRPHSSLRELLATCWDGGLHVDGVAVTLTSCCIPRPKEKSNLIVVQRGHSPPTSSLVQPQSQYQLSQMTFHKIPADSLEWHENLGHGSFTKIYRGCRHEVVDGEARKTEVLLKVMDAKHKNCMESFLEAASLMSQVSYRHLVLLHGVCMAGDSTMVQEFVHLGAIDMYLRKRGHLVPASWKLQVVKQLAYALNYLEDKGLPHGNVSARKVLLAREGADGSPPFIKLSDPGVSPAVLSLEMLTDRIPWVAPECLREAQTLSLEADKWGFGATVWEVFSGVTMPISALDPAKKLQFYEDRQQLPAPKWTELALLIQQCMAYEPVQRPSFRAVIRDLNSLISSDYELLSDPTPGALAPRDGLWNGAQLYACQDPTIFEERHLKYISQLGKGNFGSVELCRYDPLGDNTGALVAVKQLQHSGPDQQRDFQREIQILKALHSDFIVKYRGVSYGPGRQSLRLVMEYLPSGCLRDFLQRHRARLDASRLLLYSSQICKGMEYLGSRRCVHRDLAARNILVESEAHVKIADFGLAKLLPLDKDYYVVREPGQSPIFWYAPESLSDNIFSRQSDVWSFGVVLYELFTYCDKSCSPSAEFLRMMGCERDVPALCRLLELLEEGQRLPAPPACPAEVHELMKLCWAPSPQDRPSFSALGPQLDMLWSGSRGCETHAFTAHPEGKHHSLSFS

[8] = molecular target: Insulin-like growth factor 1 receptor (Homo sapiens) (UniProt P08069); test: Inhibition of IGF1R expressed in Escherichia coli or baculovirus-infected insect cells at 400 uM by TR-FRET assay
[9] = molecular target: Tyrosine-protein kinase SYK (Homo sapiens, UniProt P43405); test: Inhibition of SYK expressed in Escherichia coli or baculovirus-infected insect cells at 667 uM by TR-FRET assay
[10] = molecular target: Mitogen-activated protein kinase 8 (Homo sapiens, UniProt P45983); test: Inhibition of JNK1 expressed in Escherichia coli or baculovirus-infected insect cells at 667 uM by TR-FRET assay
[11] = molecular target: Phosphatidylinositol 4,5-bisphosphate 3-kinase catalytic subunit alpha isoform (Homo sapiens) (UniProt P42336); test: Inhibition of PI3Kalpha expressed in Escherichia coli or baculovirus-infected insect cells using gamma-[33P]ATP at 400 uM by scintillation proximity assay
[12] = molecular target: T2, Tyrosine-protein kinase ITK/TSK (Homo sapiens) (UniProt Q08881); test: Inhibition of ITK expressed in Escherichia coli or baculovirus-infected insect cells at 667 uM by TR-FRET assay
T2 sequence (whole entry): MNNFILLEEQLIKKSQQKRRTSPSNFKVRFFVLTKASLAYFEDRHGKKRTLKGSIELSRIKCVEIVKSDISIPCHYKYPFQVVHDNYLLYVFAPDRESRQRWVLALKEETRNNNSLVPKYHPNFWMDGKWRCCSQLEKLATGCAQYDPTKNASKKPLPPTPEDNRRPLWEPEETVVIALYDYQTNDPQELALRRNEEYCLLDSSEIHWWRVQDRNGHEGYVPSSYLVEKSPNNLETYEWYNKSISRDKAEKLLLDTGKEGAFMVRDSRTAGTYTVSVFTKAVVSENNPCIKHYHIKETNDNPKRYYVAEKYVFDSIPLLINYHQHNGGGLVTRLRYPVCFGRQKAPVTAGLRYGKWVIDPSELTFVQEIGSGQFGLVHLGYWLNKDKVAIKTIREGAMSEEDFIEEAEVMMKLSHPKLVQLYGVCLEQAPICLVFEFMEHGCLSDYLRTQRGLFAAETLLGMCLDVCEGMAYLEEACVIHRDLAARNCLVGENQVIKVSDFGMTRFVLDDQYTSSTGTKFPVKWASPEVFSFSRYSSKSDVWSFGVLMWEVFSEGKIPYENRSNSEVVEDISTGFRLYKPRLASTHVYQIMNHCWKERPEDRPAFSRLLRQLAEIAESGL

[13] = molecular target: MAP kinase-activated protein kinase 2 (Homo sapiens) (UniProt P49137); test: Inhibition of MK2 expressed in Escherichia coli or baculovirus-infected insect cells at 667 uM by IMAP assay
[14] = molecular target: Receptor-interacting serine/threonine-protein kinase 2 (Homo sapiens) (UniProt O43353); test: Inhibition of RIP2 expressed in Escherichia coli or baculovirus-infected insect cells at 400 uM by fluorescence polarization assay
[15] = molecular target: Receptor tyrosine-protein kinase erbB-2 (Homo sapiens) (UniProt P04626); test: Inhibition of ErbB2 expressed in Escherichia coli or baculovirus-infected insect cells at 400 uM by TR-FRET assay

Sequence of Epidermal growth factor receptor (Homo sapiens) (P00533 whole entry): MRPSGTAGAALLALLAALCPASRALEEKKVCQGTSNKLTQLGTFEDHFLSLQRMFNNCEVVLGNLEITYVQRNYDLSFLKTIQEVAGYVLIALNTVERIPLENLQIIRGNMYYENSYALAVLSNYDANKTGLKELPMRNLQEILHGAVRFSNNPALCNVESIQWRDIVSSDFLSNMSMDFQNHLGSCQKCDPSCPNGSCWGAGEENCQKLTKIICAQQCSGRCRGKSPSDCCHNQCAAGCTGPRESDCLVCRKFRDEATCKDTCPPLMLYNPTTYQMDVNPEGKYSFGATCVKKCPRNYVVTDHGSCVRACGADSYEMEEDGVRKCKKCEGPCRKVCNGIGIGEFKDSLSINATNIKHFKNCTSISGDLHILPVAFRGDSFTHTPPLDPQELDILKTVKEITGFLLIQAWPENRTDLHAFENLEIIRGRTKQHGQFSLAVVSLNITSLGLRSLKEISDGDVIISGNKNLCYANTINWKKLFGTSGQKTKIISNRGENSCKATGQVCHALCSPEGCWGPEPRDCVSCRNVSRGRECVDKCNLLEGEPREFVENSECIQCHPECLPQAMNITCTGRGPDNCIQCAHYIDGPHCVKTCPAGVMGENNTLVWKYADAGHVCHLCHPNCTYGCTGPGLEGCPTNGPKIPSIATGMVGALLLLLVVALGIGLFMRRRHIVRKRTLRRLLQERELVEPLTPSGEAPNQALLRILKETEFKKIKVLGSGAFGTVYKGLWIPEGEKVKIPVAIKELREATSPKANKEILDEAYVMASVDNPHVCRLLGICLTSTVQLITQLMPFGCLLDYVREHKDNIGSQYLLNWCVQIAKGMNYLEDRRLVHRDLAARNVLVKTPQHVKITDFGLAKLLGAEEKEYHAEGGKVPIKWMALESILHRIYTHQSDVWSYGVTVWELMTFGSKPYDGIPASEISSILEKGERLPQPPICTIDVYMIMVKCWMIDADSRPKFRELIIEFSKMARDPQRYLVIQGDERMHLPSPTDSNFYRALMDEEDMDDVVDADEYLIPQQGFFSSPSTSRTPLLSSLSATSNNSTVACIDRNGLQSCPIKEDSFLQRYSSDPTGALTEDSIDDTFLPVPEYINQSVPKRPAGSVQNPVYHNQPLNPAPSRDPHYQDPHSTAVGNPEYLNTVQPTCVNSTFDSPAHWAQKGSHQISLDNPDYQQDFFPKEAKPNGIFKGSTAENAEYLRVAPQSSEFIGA
Sequence of Receptor-interacting serine/threonine-protein kinase 2 (Homo sapiens) (O43353 whole entry): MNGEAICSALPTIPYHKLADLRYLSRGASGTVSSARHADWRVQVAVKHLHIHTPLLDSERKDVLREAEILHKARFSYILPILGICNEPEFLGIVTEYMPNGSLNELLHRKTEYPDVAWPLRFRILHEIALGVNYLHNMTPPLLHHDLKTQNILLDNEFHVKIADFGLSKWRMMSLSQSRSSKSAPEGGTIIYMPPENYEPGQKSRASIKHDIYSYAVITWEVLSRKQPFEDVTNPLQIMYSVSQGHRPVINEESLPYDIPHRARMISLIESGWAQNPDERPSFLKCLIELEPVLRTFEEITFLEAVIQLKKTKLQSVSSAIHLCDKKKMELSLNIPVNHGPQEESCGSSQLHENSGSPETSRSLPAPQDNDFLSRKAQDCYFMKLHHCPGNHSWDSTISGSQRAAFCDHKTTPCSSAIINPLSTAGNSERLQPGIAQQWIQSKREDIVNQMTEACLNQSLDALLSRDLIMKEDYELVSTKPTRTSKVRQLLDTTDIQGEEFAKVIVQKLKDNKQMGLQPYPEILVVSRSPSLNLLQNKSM
Sequence of Insulin-like growth factor 1 receptor (Homo sapiens) (P08069 31-736 limits assumed): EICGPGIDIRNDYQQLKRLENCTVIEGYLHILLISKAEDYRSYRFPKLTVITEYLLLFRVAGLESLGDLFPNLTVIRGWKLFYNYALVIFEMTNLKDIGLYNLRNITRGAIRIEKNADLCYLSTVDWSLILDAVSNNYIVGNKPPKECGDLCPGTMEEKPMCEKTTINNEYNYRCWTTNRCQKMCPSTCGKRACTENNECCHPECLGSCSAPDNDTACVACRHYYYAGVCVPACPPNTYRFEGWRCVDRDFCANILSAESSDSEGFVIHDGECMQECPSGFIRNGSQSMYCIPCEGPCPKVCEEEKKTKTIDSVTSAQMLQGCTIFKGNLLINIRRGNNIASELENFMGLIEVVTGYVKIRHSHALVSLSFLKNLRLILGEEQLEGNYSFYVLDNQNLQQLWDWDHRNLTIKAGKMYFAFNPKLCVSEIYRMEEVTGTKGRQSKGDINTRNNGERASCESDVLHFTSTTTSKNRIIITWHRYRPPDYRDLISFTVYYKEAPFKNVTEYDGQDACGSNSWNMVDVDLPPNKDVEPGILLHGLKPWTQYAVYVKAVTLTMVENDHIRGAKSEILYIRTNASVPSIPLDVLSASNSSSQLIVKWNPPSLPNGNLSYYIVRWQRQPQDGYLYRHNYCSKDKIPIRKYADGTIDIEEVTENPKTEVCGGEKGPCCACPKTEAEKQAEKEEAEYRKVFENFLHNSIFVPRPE
Sequence of Insulin-like growth factor 1 receptor (Homo sapiens) (P08069 741-1367 limits assumed): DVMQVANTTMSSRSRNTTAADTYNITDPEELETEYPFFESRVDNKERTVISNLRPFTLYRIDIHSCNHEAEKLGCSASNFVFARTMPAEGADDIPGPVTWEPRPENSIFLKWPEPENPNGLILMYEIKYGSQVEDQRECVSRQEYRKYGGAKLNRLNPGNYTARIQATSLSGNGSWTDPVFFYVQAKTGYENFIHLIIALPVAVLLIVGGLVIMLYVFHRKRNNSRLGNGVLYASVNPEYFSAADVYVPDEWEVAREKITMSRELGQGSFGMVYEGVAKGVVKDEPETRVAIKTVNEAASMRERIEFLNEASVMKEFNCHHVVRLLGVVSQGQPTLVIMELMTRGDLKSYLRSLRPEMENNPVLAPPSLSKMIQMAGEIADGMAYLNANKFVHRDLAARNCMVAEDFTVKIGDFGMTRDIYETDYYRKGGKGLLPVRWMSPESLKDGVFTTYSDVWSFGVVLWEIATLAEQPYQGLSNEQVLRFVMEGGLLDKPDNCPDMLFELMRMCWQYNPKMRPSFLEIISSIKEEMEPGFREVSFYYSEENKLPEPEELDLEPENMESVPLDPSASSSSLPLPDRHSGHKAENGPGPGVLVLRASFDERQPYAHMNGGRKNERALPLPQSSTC
Sequence of Serine/threonine-protein kinase pim-1 (Homo sapiens) (P11309 whole entry, looked up): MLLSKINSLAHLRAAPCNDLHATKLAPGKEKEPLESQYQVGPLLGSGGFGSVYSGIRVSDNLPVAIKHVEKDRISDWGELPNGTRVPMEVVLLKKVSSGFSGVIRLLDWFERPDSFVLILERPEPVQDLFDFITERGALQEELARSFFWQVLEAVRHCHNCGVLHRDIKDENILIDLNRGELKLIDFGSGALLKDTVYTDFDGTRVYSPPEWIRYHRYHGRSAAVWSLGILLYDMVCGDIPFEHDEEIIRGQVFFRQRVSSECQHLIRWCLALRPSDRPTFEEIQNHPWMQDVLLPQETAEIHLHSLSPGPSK
Sequence of RAC-alpha serine/threonine-protein kinase (P31749 whole entry): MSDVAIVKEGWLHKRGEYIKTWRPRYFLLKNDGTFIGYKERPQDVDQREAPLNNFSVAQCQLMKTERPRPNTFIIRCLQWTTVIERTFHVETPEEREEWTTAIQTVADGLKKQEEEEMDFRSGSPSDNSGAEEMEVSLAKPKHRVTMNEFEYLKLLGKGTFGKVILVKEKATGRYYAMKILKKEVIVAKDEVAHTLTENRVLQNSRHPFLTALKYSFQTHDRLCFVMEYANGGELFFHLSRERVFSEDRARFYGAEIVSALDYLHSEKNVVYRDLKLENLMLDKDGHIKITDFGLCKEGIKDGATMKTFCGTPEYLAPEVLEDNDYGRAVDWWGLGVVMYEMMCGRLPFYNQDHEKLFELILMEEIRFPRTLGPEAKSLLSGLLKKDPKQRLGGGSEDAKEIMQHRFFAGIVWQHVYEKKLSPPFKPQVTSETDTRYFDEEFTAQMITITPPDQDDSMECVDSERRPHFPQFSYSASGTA
Sequence of Mitogen-activated protein kinase 8 (P45983 whole entry, canonical isoform): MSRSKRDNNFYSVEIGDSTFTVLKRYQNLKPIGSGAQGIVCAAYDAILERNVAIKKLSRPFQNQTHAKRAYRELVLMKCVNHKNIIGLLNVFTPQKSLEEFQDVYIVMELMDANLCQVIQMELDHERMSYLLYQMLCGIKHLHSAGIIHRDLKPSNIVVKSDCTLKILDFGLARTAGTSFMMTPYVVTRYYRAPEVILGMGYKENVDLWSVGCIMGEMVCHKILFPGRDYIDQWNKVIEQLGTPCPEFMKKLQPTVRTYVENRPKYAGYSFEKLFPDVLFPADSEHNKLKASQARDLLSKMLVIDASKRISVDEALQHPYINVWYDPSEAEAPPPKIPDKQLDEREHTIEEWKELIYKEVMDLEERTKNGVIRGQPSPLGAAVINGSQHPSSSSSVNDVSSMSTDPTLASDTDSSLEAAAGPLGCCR
Sequence of MAP kinase-activated protein kinase 2 (Homo sapiens) (P49137 whole entry, looked up): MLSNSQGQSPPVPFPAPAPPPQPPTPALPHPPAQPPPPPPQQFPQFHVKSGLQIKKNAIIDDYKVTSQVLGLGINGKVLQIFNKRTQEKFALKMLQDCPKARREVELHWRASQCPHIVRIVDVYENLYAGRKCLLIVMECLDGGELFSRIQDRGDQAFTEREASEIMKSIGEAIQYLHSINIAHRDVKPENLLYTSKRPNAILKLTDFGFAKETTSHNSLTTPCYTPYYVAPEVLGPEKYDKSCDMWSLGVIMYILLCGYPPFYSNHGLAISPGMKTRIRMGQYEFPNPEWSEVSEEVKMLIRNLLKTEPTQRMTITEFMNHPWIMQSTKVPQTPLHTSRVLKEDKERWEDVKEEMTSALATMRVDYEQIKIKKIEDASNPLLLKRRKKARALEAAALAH

Row | inhibition [1] | inhibition [2] | inhibition [3] | inhibition [4] | inhibition [5] | inhibition [6] | inhibition [7] | inhibition [8] | inhibition [9] | inhibition [10] | inhibition [11] | inhibition [12] | inhibition [13] | inhibition [14] | inhibition [15] | Structure (SMILES)
1 | 64% | 17% | 29% | 6% | 54% | 9% | 54% | 20% | 51% | 18% | 59% | 12% | 54% | 94% | 21% | Nc1ncccc1OCc1ccccc1
2 | 0% | 0% | 17% | 0% | 39% | 8% | 0% | 0% | 15% | 14% | 46% | 6% | 0% | 0% | 0% | c1ccc(-c2cnc3nccnn23)cc1
3 | 25% | 0% | 10% | 1% | 5% | 25% | 5% | 15% | 26% | 13% | 24% | 24% | 24% | 2% | 0% | c1n[nH]c2c1CCCC2
4 | 93% | 47% | 67% | 33% | 89% | 36% | 74% | 92% | 86% | 83% | 86% | 94% | 28% | 69% | 25% | Nc1ccc2ncc(-c3ccccc3)n2n1
